US10918613B2, “Antioxidant compositions for treatment of inflammation or oxidative damage” (Perio Sciences, LLC, priority 2011, dated 2021)
Like-named read-outs stand apart in the source and are kept apart here.

Key:
[1] = system: Oral fibroblasts obtained from human gingival (HGF) tissues
Protocol: (§1) In dentistry, the use of metals in fillings, braces, bridges and other prosthodontic restorations may form free radicals. […] A study was conducted to determine if oral fibroblasts are susceptible to damage from these agents which elevate reaction oxygen species (ROS). In this study, specific antioxidant (AO) combinations were investigated that counteract the effects of Zn, Cu and Ni on cultured oral fibroblast proliferation and oxidative damage. Oral fibroblasts obtained from human gingival (HGF) tissues were seeded into 96-well plates. After achieving 70% confluence, the cells were pre-treated with Zn, Cu and Ni for 30 and 60 minutes. Thereafter, cells were exposed to 10^-5M of the bioactive AO mixtures; resveratrol (R), ferulic acid (F) phloretin (P) and tetrahydrocurcuminoids (T); (RFT, PFR, PFT) for 24 hours. Cell viability was monitored by MTS assay. The fluorescence response of dichlorodihydrofluorescein diacetate to various ROS was measured.
(§2) A study was conducted to determine if oral fibroblasts are susceptible to damage from these agents by decreasing cell viability and whether specific antioxidants (AO) in combinations can counteract these effects. Oral fibroblasts obtained from human gingival (HGF) tissues were seeded into 96-well plates. After achieving 70% confluence, the cells were pre-treated with Zn, Cu and Ni for 30 and 60 minutes. Thereafter, cells were exposed to 10^-5M of the bioactive AO mixtures at single, double and triple combinations; resveratrol (R), ferulic acid (F), phloretin (P), and tetrahydrocurcuminoids (T) for 24 hours. Cell viability was monitored by MTS assay.

[2] = system: Oral fibroblasts obtained from human gingival (HGF) tissues; assay: MTS cell viability assay of HGF cells pre-treated with Zn, Cu and Ni, then AO mixtures
Protocol: as §1, §2

[3] = system: fibroblasts from human gingival (HGF) and human periodontal ligament (HPDF) cells
Protocol: A study was done to determine the antioxidant effect on fibroblasts from human gingival (HGF) and human periodontal ligament (HPDF) cells exposed to increasing concentration of cytotoxic metals. HGF and HPDF cells were extracted and seeded with 10% fetal bovine serum (FBS). Both the HGF and HPDF cells were then exposed to one of 3×10^−4M or 2×10^−4M ZnCl2, 2×10^−3M or 1×10^−3M NiCl2, 5×10^−4M or 4×10^−4M CuCl2. Next, the samples were treated with bioactive antioxidant (AO) mixtures at single, double, and triple combinations; resveratrol (R), ferulic acid (F), phloretin (P), and tetrahydrocurcuminoids (T). Both the HGF and HPDF cells were then monitored by MTS, ROS, and BrdU assays.

TNF-α mRNA = assay: RT-PCR of TNF-α mRNA in LPS-stimulated PBMCs; assay type: cell-based, human; settings: harvested after 4 hrs, 2-ΔΔCt, GAPDH control
Protocol: (§3) RT-PCR Assays—Total RNA was extracted from homogenized cells using the miRNeasy kit (Qiagen, Valencia, Calif., USA) according to the manufacturer's protocol. Total RNA quantified on Nanodrop (ThermoScientific, Rockford, Ill., USA) was used for first strand cDNA synthesis using the SS RTIII kit (Life Technologies, Carlsbad, Calif., USA). Real-time PCR was performed using EvaGreen 2× master mix (Biotium, Hayward, Calif., USA), 10 pmol forward and reverse gene specific primers and 1 ul of 1:10 diluted cDNA. GAPDH was used as endogenous control. The fold change was calculated using 2-ΔΔCt method and the control was set at 1. Custom primers were purchased from Sigma-Aldrich (St Louis, Mo., USA). Primer sequences for TNF-α were: Forward, […], Reverse: […]. Primer sequences for IκB-α were: Forward, […], Reverse: […]. Data Analysis—Statistics were performed using two-tailed t-test or one-way analysis of variance (ANOVA). Statistical significance is indicated by an asterisk *, where p≤0.05. Error bars on all graphs indicate standard error of mean (SEM) or standard deviation (SD).
(§4) Inhibition of TNF-α is present at the level of mRNA transcription—Whether the reduced production of inflammatory mediators was due to decreased mRNA transcription was investigated. […] After 4 hrs the cells were harvested, total RNA isolated and RT-PCR performed to measure the levels of TNF-α mRNA present. […]

TNF-α = TNF-α production by Aa Y4 LPS-stimulated PBMCs (ELISA); assay type: cell-based, human; settings: PBMCs pre-treated 2 hrs with 1×10^−4M anti-oxidant, then LPS 18 hrs
Description: (§5) Cell Culture—PBMCs were isolated from buffy coats derived from healthy donors (Sylvan N. Goldman Oklahoma Blood Institute, Oklahoma City, Okla., USA) by density gradient centrifugation (Ficoll-Paque plus; GE Healthcare, Piscataway, N.J., USA). Oleuropein (purity=80.17%) was purchased from Sabinsa Corporation (Payson, Utah, USA). Silymarin (purity≥95%), ferulic acid (purity≥98%), hesperetin (purity≥95%), resveratrol (purity≥99%), and phloretin (purity≥99%) were purchased from Sigma-Aldrich (St Louis, Mo., USA). Dimethyl sulfoxide (DMSO) (purity=99.90%) was purchased from EMD Millipore (Billerica, Mass., USA). Oleuropein, silymarin, ferulic acid, hesperetin, resveratrol and phloretin were provided as 0.1M stock solutions prepared in DMSO by Periosciences Ltd (Dallas, Tex., USA).
PBMCs were seeded at either 4×10^5 or 1.2×10^6 cells in 96- or 48-well tissue culture plates (BD Biosciences, Franklin Lakes, N.J., USA) respectively. PBMCs were pre-treated with single antioxidants at a concentration of 1×10^−4 M or combinations of antioxidants with a combined concentration of 1×10^−4 M for 2 hrs prior to stimulation. […] S.C.) at a concentration of 1 μg/ml in the presence of antioxidants. Media were collected, spun at 1600 RPM and cell-free supernatants transferred to fresh tubes and stored at −20 C. Cell viability was assayed using CellTiter 96® AQueous One Solution Reagent (Promega, Madison, Wis., USA) following the manufacturers guidelines. 20 μl of the reagent was added to each well and incubated for 2 hrs under culture conditions. After 2 hrs the absorbance at 490 nm was recorded using a 96-well plate reader.
ELISA and Multiplex Assays—Human tumour necrosis factor-alpha (TNF-α) capture and detection Abs were purchased from Life Technologies (Carlsbad, Calif., USA) and used for the development of a TNF-α sandwich ELISA according to the manufacturer's instructions. Cell culture supernatants were analyzed using a 96-well plate reader with absorbance at 450 nm (reference 650 nm).
Stimulation of PBMCs with Aa Y4 LPS—To establish the optimal concentrations of anti-oxidants and LPS for this study, dose and kinetic experiments were performed. The doses examined were: 1×10^−4, 1×10^−5 and 1×10^−6M while the challenge concentrations of Aa Y4 LPS were 1, 10, 100 or 1000 ng/ml. Whole blood was stimulated with several concentrations of E. coli or Aa Y4 LPS and TNF-α production quantified by ELISA over 3 time-points: 16, 24 and 48 hrs.

CCL5 = CCL5 production by LPS-stimulated PBMCs (multiplex); assay type: cell-based, human; settings: 1×10^−4M anti-oxidant 2 hrs, then LPS 18 hrs
Description: as §5, with “Oleuropein, silymarin, ferulic acid, hesperetin, resveratrol and phloretin were provided as 0.1M stock solutions prepared in DMSO by Periosciences Ltd (Dallas, Tex., USA).” left out
(§6) PBMCs were seeded at either 4×10^5 or 1.2×10^6 cells in 96- or 48-well tissue culture plates (BD Biosciences, Franklin Lakes, N.J., USA) respectively. […] After 2 hrs the absorbance at 490 nm was recorded using a 96-well plate reader.
(§7) Human Cytokine Fluorokine MAP kit was purchased from R & D Systems (Minneapolis, Minn., USA). Readouts included TNF-α, IL-1α, IL-1β, IL-1Ra, IL-2, IL-4, IL-5, IL-6, IL-8, IL-10, IL-17, macrophage inflammatory protein (MIP)-1α (MIP-1α), MIP-1β, interferon-γ (IFN-γ), granulocyte-colony stimulating factor (G-CSF), granulocyte macrophage-colony stimulating factor (GM-CSF), macrophage chemotactic protein (MCP-1), CCL5, CXCL5, vascular endothelial growth factor (VEGF), thrombopoietin (TPO) and fibroblast growth factor basic (FGFb). […]

IL-6 = IL-6 production by LPS-stimulated PBMCs (multiplex); assay type: cell-based, human; settings: 1×10^−4M anti-oxidant 2 hrs, then LPS 18 hrs
Description: as §5
(§8) PBMCs were seeded at either 4×10^5 or 1.2×10^6 cells in 96- or 48-well tissue culture plates (BD Biosciences, Franklin Lakes, N.J., USA) respectively. PBMCs were pre-treated with single antioxidants at a concentration of 1×10^−4 M or combinations of antioxidants with a combined concentration of 1×10^−4 M for 2 hrs prior to stimulation. PBMCs were then stimulated for 16 hrs with purified LPS isolated from the bacterium Actinobacillus actinomycetemcomitans, strain Y4 (Aa Y4); a kind gift of Dr Kirkwood, Univ. S.C.) at a concentration of 1 μg/ml in the presence of antioxidants. Media were collected, spun at 1600 RPM and cell-free supernatants transferred to fresh tubes and stored at −20 C. […] After 2 hrs the absorbance at 490 nm was recorded using a 96-well plate reader.
as §7

IL-1α = IL-1α production by LPS-stimulated PBMCs (multiplex); assay type: cell-based, human; settings: 1×10^−4M anti-oxidant 2 hrs, then LPS 18 hrs
Description: as §5, §8, §7

IL-1β = IL-1β production by LPS-stimulated PBMCs (multiplex, FIG. 9D); assay type: cell-based, human; settings: 1×10^−4M anti-oxidant 2 hrs, then LPS 18 hrs
Description: as §5, with “Oleuropein, silymarin, ferulic acid, hesperetin, resveratrol and phloretin were provided as 0.1M stock solutions prepared in DMSO by Periosciences Ltd (Dallas, Tex., USA).” left out
as §6, §7

G-CSF = G-CSF production by LPS-stimulated PBMCs (multiplex); assay type: cell-based, human; settings: 1×10^−4M anti-oxidant 2 hrs, then LPS 18 hrs
Description: Cell Culture—PBMCs were isolated from buffy coats derived from healthy donors (Sylvan N. Goldman Oklahoma Blood Institute, Oklahoma City, Okla., USA) by density gradient centrifugation (Ficoll-Paque plus; GE Healthcare, Piscataway, N.J., USA). Oleuropein (purity=80.17%) was purchased from Sabinsa Corporation (Payson, Utah, USA). […] Dimethyl sulfoxide (DMSO) (purity=99.90%) was purchased from EMD Millipore (Billerica, Mass., USA). Oleuropein, silymarin, ferulic acid, hesperetin, resveratrol and phloretin were provided as 0.1M stock solutions prepared in DMSO by Periosciences Ltd (Dallas, Tex., USA).
PBMCs were seeded at either 4×10^5 or 1.2×10^6 cells in 96- or 48-well tissue culture plates (BD Biosciences, Franklin Lakes, N.J., USA) respectively. PBMCs were pre-treated with single antioxidants at a concentration of 1×10^−4 M or combinations of antioxidants with a combined concentration of 1×10^−4 M for 2 hrs prior to stimulation. PBMCs were then stimulated for 16 hrs with purified LPS isolated from the bacterium Actinobacillus actinomycetemcomitans, strain Y4 (Aa Y4); a kind gift of Dr Kirkwood, Univ. S.C.) at a concentration of 1 μg/ml in the presence of antioxidants. Media were collected, spun at 1600 RPM and cell-free supernatants transferred to fresh tubes and stored at −20 C. Cell viability was assayed using CellTiter 96® AQueous One Solution Reagent (Promega, Madison, Wis., USA) following the manufacturers guidelines. […] After 2 hrs the absorbance at 490 nm was recorded using a 96-well plate reader.

IFN-γ = IFN-γ production by LPS-stimulated PBMCs (multiplex); assay type: cell-based, human; settings: 1×10^−4M anti-oxidant 2 hrs, then LPS 18 hrs
Description: as §5, §8, §7

IL-1Ra = IL-1Ra production by LPS-stimulated PBMCs (multiplex); assay type: cell-based, human; settings: 1×10^−4M anti-oxidant 2 hrs, then LPS 18 hrs
Description: as §5, with “Oleuropein, silymarin, ferulic acid, hesperetin, resveratrol and phloretin were provided as 0.1M stock solutions prepared in DMSO by Periosciences Ltd (Dallas, Tex., USA).” left out
as §6, §7

IL-10 = IL-10 production by LPS-stimulated PBMCs (multiplex); assay type: cell-based, human; settings: 1×10^−4M anti-oxidant 2 hrs, then LPS 18 hrs
Description: as §5, with “Oleuropein, silymarin, ferulic acid, hesperetin, resveratrol and phloretin were provided as 0.1M stock solutions prepared in DMSO by Periosciences Ltd (Dallas, Tex., USA).” left out
as §6, §7

IκB-α mRNA = assay: RT-PCR of IκB-α mRNA in LPS-stimulated PBMCs (NF-κB activation); assay type: cell-based, human
Protocol: as §3, §4

[4] = HGF and HPDF, Example 4 metal concentrations

## [Cl][Cu][Cl] [Cu, CuCl2]
[1]
  effect of metal on ROS: increased ROS
[2]
  viable cells after incubation with metal (MTS): dose-dependent decrease of viable cells
[3]
  effect of metal on ROS: increased ROS

## [Cl][Ni][Cl] [Ni, NiCl2]
[1]; HGF cells
  effect of metal on ROS: increased ROS
[2]; HGF cells, 30 and 60 minutes
  viable cells after incubation with metal (MTS): dose-dependent decrease of viable cells
[3]; [4]
  effect of metal on ROS: little effect on ROS

## [Cl-].[Cl-].[Zn+2] [Zn, ZnCl2]
[1]; HGF cells
  effect of metal on ROS: increased ROS
[2]; HGF cells, 30 and 60 minutes
  viable cells after incubation with metal (MTS): dose-dependent decrease of viable cells
[3]; [4]
  effect of metal on ROS: little effect on ROS

## COc1cc(/C=C/C(=O)O)ccc1O [ferulic acid]
TNF-α mRNA
  reduction of TNF-α mRNA expression levels: not
TNF-α
  TNF-α production: no observed effect
CCL5
  production of CCL5: Apart from ferulic acid

## COc1ccc([C@@H]2CC(=O)c3c(O)cc(O)cc3O2)cc1O [hesperetin]
IL-6
  production of IL-6: inhibited the production
IL-1α
  production of IL-1α: inhibited the production
IL-1β
  levels of IL-1β: decreased levels
TNF-α
  TNF-α production: Significant inhibition
G-CSF
  G-CSF production: inhibited
IFN-γ
  IFN-γ induced by LPS stimulation: abolished

## O=C(CCc1ccc(O)cc1)c1c(O)cc(O)cc1O [phloretin]
IL-6
  production of IL-6: inhibited the production
IL-1α
  production of IL-1α: inhibited the production
TNF-α
  TNF-α production: Significant inhibition
G-CSF
  G-CSF production: inhibited
IL-1Ra
  production of IL-1Ra: inhibited the production
IFN-γ
  IFN-γ induced by LPS stimulation: abolished
IL-10
  production of IL-10: inhibited the production

## Oc1ccc(C=Cc2cc(O)cc(O)c2)cc1 [resveratrol]
IL-6
  production of IL-6: inhibited the production
IL-1α
  production of IL-1α: inhibited the production
IL-1β
  levels of IL-1β: decreased levels
TNF-α
  TNF-α production: Significant inhibition
IκB-α mRNA
  reduction of IκB-α mRNA expression: ~50%
G-CSF
  G-CSF production: inhibited
IL-1Ra
  production of IL-1Ra: inhibited the production
IFN-γ
  IFN-γ induced by LPS stimulation: abolished
IL-10
  production of IL-10: inhibited the production
